These results are taken from article PMC10483525, “Synthesis, Structural Investigations, DNA/BSA Interactions, Molecular Docking Studies, and Anticancer Activity of a New 1,4-Disubstituted 1,2,3-Triazole Derivative” (ACS Omega, 2023).

What all share (test): MTT assay
Format in all cases: cell-based, human
On the technique in general: Tetrazolium assays rely on reduction of a dye to a coloured formazan, in cell work by metabolically active cells.

One data set has as its system HEK-293. How it is done: (§1) Human cancer cell lines (MDA-MB-231, LNCaP, Caco-2) and a human healthy cell line (HEK-293) were obtained from the European Collection of Cell Cultures. The cells were incubated in a humidified incubator (37 °C, 5% CO2) and cultured under standard conditions in Dulbecco’s modified Eagle medium (DMEM), 10% heat-inactivated fetal bovine serum, 100 U mL^–1 penicillin, 100 U mL^–1 streptomycin, and 4 mM L-glutamine. […] A cell culture medium was used to make further dilutions, while keeping the equivalent of DMF below 0.5% of the total volume.[94] […]
(§2) 7. Cell Viability Inhibition Assay
(§3) MDA-MB-231, LNCaP, Caco-2 and HEK-293 cells (5x10^3 per well) seeded in 96-well plates to assess cell viability by the 3-[4,5-dimethylthiazol-2-yl]-2,5-diphenyltetrazolium bromide (MTT) assay for 24 h at 37°C. Then cells were treated with compound 3 at different concentrations (3-100 µM) at 100μl/well. In parallel, the traditional anticancer agent cisplatin and etoposid was used as positive controls under identical conditions. After 24, 48 and 72 h incubation, 5 mg/ml MTT solution (20 μl/well) was added and cultured for another 4 h. Then, the supernatant was discarded and dimethyl sulfoxide was added (100 μl/well). The absorbance (A) was measured spectrophotometrically at 540 nm by a Microplate Reader (SpectraMax i3x).
(§4) A graph was plotted between the concentrations of the extract versus the percent viability. The […]
(§5) calculated from graph. All assays were performed in three replicates per concentration level. 11 […]

Another data set concerns MDA-MB-231. The procedure: as §1, §2, §3, §4, §5
Another data set relates to LNCaP. The settings on record: for IC50: LNCaP. How it is done: as §1, §2, §3, §4, §5
Another data set deals with Caco-2. The settings on record: for IC50: Homo sapiens. The procedure: as §1, §2
MDA-MB-231, LNCaP, Caco-2 and HEK-293 cells (5x10^3 per well) seeded in 96-well plates to assess cell viability by the 3-[4,5-dimethylthiazol-2-yl]-2,5-diphenyltetrazolium bromide (MTT) assay for 24 h at 37°C. Then cells were treated with compound 3 at different concentrations (3-100 µM) at 100μl/well. […]
and etoposid was used as positive controls under identical conditions. After 24, 48 and 72 h incubation, 5 mg/ml MTT solution (20 μl/well) was added and cultured for another 4 h. Then, the supernatant was discarded and dimethyl sulfoxide was added (100 μl/well). The absorbance (A) was measured spectrophotometrically at 540 nm by a Microplate Reader (SpectraMax i3x).
as §4, §5

Where [1] appears, read: 48 h, SI = IC50 on normal cells/IC50 on cancer cells.

The structures appear in SMILES notation.

Broadly, the IC50 is the concentration needed to halve the response being measured. A high value points to weaker potency in that assay. Take `N.N.[Cl][Pt][Cl]` [cisplatin]: the 50% inhibitory concentration (IC50) was 18.62 ± 0.09 µM in the data set on HEK-293 (HEK-293, 24 h); 4.7 ± 0.01 µM in the data set with HEK-293 (HEK-293, 48 h); 2.43 ± 0.01 µM in the data set on HEK-293 (HEK-293, 72 h); 8.43 ± 0.01 µM with MDA-MB-231 (MDA-MB-231, 24 h); 2.19 ± 0.02 µM in the data set on MDA-MB-231 (MDA-MB-231, 48 h); 1.78 ± 0.01 µM in the data set with MDA-MB-231 (MDA-MB-231, 72 h). Further, the 50% inhibitory concentration (IC50) with LNCaP (24 h) was determined as 26.1 ± 0.58 µM; in the data set on LNCaP (48 h), 25.9 ± 0.48 µM; in the data set on LNCaP (72 h), 10.3 ± 0.28 µM.
In turn, `COc1cc([C@@H]2c3cc4c(cc3[C@@H](O[C@@H]3O[C@@H]5CO[C@@H](C)O[C@H]5[C@H](O)[C@H]3O)[C@H]3COC(=O)[C@H]23)OCO4)cc(OC)c1O` [etoposide] gave an SI HEK-293/Caco-2 in the data set with Caco-2 (setting [1]) of 1.1. The IC50 in the data set on Caco-2 (Caco-2, 24 h) came out at 76.27 ± 0.34 µM; with Caco-2 (Caco-2, 48 h) it was 53.81 ± 0.17 µM; in the data set on Caco-2 (Caco-2, 72 h), 17.5 ± 0.26 µM; in the data set on HEK-293 (Homo sapiens, HEK293, HEK-293, 24 h), 110.3 ± 0.16 µM; with HEK-293 (Homo sapiens, HEK293, HEK-293, 48 h), 59.2 ± 0.32 µM; with HEK-293 (Homo sapiens, HEK293, HEK-293, 72 h), 51.62 ± 0.48 µM. For the same molecule, the IC50 in the data set on MDA-MB-231 (Homo sapiens, MDA-MB-231, 24 h) stood at 85.4 ± 0.74 µM; in the data set with MDA-MB-231 (Homo sapiens, MDA-MB-231, 48 h), 63.17 ± 0.05 µM; in the data set on MDA-MB-231 (Homo sapiens, MDA-MB-231, 72 h), 24.3 ± 0.44 µM; in the data set with LNCaP (Homo sapiens, 24 h), 81.47 ± 0.62 µM; in the data set with LNCaP (Homo sapiens, 48 h), 62.02 ± 0.61 µM; in the data set on LNCaP (Homo sapiens, 72 h), 20.79 ± 0.08 µM. Moreover, the SI HEK-293/MDA-MB-231 in the data set on MDA-MB-231 (setting [1]) came out at 0.94. Also, the SI HEK-293/LNCap in the data set with LNCaP (setting [1]) is 0.95.
